# Measurements reported in ChEMBL document CHEMBL4725253, “Discovery of quinoline-based irreversible BTK inhibitors” (Bioorg Med Chem Lett, 2020).
# What was measured:
# [1] = target: T1, Epidermal growth factor receptor (Homo sapiens, UniProt P00533); experiment: Inhibition of recombinant human GST-tagged EGFR (668 to 1210 residues) expressed in baculovirus expression system using Tyr 04 peptide as substrate preincubated for 1 hr by Z'-LYTE assay
# [2] = target: Tyrosine-protein kinase BTK (Homo sapiens, UniProt Q06187); experiment: Inhibition of His-tagged recombinant human His-tagged full length BTK expressed in baculovirus expression system using Tyr01 peptide as substrate preincubated for 1 hr by Z'lyte assay
# [3] = target: T2, Tyrosine-protein kinase JAK3 (Homo sapiens, UniProt P52333); experiment: Inhibition of recombinant human GST-tagged JAK3 catalytic domain (781 to 1124 residues) expressed in baculovirus expression system using tyrosine-6 peptide as substrate preincubated for 1 hr in presence of ATP by Z'-LYTE assay
# T2 sequence (P52333 whole entry): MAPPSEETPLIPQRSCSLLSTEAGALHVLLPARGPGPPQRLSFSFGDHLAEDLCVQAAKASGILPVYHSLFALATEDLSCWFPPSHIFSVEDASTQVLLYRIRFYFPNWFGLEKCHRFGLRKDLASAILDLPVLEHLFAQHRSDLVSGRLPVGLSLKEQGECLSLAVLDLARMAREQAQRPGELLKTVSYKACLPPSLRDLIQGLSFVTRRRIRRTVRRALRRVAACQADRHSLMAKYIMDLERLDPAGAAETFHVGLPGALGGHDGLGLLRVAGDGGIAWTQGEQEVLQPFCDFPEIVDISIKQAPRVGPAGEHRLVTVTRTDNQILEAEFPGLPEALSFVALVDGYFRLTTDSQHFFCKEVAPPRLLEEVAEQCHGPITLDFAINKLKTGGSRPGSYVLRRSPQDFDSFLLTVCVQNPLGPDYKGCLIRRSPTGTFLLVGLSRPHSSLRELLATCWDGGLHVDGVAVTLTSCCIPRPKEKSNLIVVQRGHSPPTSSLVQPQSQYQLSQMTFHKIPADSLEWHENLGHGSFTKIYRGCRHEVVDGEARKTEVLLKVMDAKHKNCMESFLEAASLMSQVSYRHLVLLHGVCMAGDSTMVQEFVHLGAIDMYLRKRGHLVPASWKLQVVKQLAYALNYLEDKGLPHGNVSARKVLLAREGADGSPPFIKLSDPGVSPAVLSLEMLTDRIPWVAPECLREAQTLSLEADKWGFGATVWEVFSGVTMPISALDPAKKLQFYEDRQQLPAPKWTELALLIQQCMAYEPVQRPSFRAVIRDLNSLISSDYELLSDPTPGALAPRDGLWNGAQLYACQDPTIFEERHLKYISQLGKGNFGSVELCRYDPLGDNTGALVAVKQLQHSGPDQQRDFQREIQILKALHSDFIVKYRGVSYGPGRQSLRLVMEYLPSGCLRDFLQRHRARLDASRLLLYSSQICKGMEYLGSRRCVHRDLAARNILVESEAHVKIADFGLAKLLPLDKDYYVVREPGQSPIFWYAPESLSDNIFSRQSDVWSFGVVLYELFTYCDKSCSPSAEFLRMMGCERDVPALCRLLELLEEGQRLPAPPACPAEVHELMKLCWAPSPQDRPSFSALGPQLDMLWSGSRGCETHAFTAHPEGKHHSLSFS
# [4] = target: T1, Epidermal growth factor receptor; experiment: Inhibition of EGFR phosphorylation in human A431 cells; assay type: cell-based
# [5] = Inhibition of goat anti-human IgM F(ab')-stimulated CD86 cell surface expression in human PBMC preincubated for 2 hrs followed by anti-human IgM stimulation for 18 hrs by flow cytometric analysis; assay type: functional, tissue-based
# [6] = tested on: Blood; experiment: Inhibition of mouse anti-human anti-IgD-stimulated CD86 cell surface expression in human whole blood preincubated for 2 hrs followed by anti-human anti-IgD stimulation for 18 hrs by flow cytometric analysis; assay type: functional, tissue-based
# [7] = target: EGFR (phosphorylation) (Homo sapiens, UniProt P00533); experiment: Inhibition of EGFR phosphorylation in human A431 cells at 10000 nM relative to control; assay type: cell-based
# [8] = In vivo inhibition of CD69 expression in po dosed mouse; assay type: functional
# T1 sequence (P00533 whole entry, the tested form may be a part): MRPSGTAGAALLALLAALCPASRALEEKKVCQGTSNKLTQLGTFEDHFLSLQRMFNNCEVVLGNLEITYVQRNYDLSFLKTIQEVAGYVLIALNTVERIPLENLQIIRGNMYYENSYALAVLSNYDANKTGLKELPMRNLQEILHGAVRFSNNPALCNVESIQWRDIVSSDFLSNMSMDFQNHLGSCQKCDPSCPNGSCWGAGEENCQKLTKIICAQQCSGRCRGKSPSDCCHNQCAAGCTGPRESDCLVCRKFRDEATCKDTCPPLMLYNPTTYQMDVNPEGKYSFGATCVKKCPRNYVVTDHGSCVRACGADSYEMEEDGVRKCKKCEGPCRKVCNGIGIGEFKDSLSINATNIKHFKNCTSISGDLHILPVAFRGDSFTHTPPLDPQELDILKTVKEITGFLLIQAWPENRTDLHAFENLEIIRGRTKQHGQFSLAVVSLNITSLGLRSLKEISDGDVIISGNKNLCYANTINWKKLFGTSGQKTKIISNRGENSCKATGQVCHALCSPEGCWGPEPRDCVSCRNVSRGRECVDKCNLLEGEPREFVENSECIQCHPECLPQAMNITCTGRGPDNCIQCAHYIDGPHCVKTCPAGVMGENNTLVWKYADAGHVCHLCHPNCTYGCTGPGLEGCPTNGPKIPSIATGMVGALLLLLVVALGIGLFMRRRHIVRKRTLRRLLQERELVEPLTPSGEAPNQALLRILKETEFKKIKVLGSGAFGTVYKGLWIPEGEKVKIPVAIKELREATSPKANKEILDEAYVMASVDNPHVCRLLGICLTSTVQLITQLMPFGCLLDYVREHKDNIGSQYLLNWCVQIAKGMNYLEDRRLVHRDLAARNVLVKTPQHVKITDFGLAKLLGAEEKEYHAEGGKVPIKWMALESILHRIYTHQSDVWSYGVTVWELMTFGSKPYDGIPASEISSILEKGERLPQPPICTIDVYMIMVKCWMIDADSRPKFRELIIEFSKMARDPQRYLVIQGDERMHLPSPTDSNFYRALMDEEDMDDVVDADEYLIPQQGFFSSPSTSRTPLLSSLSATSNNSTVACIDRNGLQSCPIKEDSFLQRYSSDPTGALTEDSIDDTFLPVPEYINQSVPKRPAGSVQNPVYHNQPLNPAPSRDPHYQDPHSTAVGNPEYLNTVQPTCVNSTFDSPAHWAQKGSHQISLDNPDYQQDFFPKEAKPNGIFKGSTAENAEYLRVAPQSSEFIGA
# Sequence of Tyrosine-protein kinase BTK (Q06187 whole entry, the tested form may be a part): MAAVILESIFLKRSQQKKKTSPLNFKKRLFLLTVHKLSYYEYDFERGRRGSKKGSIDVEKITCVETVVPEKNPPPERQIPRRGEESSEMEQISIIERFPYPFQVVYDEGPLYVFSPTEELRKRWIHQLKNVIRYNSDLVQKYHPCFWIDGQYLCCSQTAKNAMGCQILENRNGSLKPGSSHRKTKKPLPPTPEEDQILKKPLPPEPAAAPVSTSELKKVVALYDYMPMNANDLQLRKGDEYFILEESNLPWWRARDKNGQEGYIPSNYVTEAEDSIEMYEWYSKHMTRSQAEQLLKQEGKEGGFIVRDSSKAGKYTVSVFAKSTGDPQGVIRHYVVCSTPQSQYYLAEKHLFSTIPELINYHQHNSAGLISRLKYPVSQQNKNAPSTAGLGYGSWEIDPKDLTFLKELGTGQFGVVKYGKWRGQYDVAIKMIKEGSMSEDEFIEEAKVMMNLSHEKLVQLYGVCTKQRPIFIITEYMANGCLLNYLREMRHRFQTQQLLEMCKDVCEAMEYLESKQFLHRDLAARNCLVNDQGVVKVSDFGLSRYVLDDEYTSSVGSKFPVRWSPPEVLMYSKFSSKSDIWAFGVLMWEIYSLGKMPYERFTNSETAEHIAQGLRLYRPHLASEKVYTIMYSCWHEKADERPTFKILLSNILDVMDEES
# Sequence of EGFR (phosphorylation) (P00533 whole entry): as the sequence (P00533 whole entry, the tested form may be a part) above
SMILES,IC50 [1] [nM],IC50 [2] [nM],IC50 [3] [nM],EC50 [4] [nM],EC50 [5] [nM],EC50 [6] [nM],inhibition at 10 µM [7] [%],ED50 [8] [mg/kg]
CC#CC(=O)Nc1cc2c(Oc3ccc(C(=O)Nc4ccccn4)cc3)ccnc2cc1OCCN1CCOCC1,> 1000,8.3,> 1000,> 1000,,,,
C=CC(=O)Nc1ccc2nccc(Oc3ccc(C(=O)Nc4cc(CC)ccn4)cc3)c2c1,958,4,838,,21,267,36,
COc1cc2nccc(Oc3ccc(C(=O)Nc4ccccn4)cc3)c2cc1NC(=O)C#CCCN1CCOCC1,138,1.5,174,> 1000,,,,13
